Assay results as given in paper PMC8838850, “Synthesis, Antimicrobial, Anti-Virulence and Anticancer Evaluation of New 5(4H)-Oxazolone-Based Sulfonamides” (Molecules, 2022).
Values after ≈ are worked out from the molar mass of the structure shown.

Tests used:
[1] = test system: Aspergillus niger ATCC 16404; test: MIC by agar dilution (antifungal); format: cell-based; details: ATCC16404, read-out: Minimum inhibitory concentration (MIC)
Procedure: (§1) The MICs of the synthesized compound were determined by agar dilution method according to the Clinical Laboratory and Standards Institute Guidelines (CLSI, 2015). Briefly, the tested strains were incubated overnight in tryptic soy broth (TSB) (Oxoid, United Kingdom) and then diluted in Muller–Hinton (MH) broth (Oxoid, United Kingdom) to turbidity approximating to the equivalent of 0.5 McFarland standard. The suspensions were further diluted with sterile saline (1:10) and standardized inoculums (approximately 10^4 CFU per spot) were spotted on the surfaces of MH agar (Oxoid, United Kingdom) plates containing different concentrations of tested compounds and a control plate. The MICs were the lowest concentrations that inhibit growth on the plates after incubation at 37 °C for 20 h.

P. aeruginosa [2] = test: Quantification of pyocyanin pigment; format: cell-based, Pseudomonas aeruginosa; details: sub-MIC
Procedure: The ability of selected compounds 5, 7 and 10 at sub-MIC to reduce the P. aeruginosa pyocyanin pigment production was estimated as described earlier. P. aeruginosa overnight cultures were prepared and diluted in LB broth at 600 nm (O.D0.4), and 10 μL of the bacterial suspensions were added to 1mL broth tubes containing, or not, tested drugs at sub-MIC. After incubation for 48 h at 37 °C, the tubes were centrifuged and the pyocyanin in the supernatant was assayed spectrophotometrically at 691 nm by a Biotek spectrofluorometer (Biotek, Winooski, VT, USA). The experiment was repeated in triplicate, and the pyocyanin absorbances in the presence of tested compounds were expressed as mean ± standard error of percentage change from untreated controls. The percentages of pigment production were calculated using the formula: (absorbance of control − absorbance in presence of tested compounds)/absorbance of control.

[3] = test system: Pseudomonas aeruginosae ATCC 47085; test: MIC by agar dilution; format: cell-based, Pseudomonas aeruginosa; details: ATCC47085, 37 °C, 20 h, read-out: Minimum inhibitory concentration (MIC)
Procedure: as §1

[4] = test system: P. aeruginosa ATCC 47,085; test: Biofilm formation assay (crystal violet, light microscopy); format: cell-based, Pseudomonas aeruginosa; details: sub-MIC (½ MIC), crystal violet method
Procedure: Bacterial virulence is regulated via a quorum sensing (QS) system in an inducer/receptor manner. Diminishing bacterial virulence is an advantageous strategy to decrease the development of bacterial resistance. In this direction, anti-virulence and anti-QS activities have been explored in several studies as reviewed. The ability of P. aeruginosa or S. aureus to form biofilms was assayed in the absence or presence of tested compounds at sub-MIC. […] The experiment was conducted in triplicate and a one-way ANOVA test was employed to test the statistical significance using Graphpad Prism 8 software. The results were significant statistically where p values < 0.05. Moreover, microscopic visualization of biofilm under the effect of tested compounds was also performed by light microscopy. Representative images for the inhibitory effects on S. aureus and P. aeruginosa biofilm formation are shown (Figure 3C,D). The microscopic images show a marked reduction in both the thickness of and surface area covered by the biofilms in presence of the tested compound.
In order to evaluate the ability of the tested compounds to inhibit the biofilm formation, a strong biofilm forming P. aeruginosa ATCC 47,085 [47, 66] and S. aureus ATCC 6538 [67] strains were used. As described earlier, suspensions of tested strains were prepared from overnight cultures in TSB and their optical densities were adjusted to OD600 of 0.4 (1×10^8 CFU/mL). Aliquots of 10 μL of the suspensions were added to 1 mL amounts of fresh TSB with or without sub-MICs of tested compounds. […] The non-adherent cells were removed, the wells were washed with sterile PBS, and left to dry. The attached biofilm forming cells were fixed with methanol for 25 min and stained with 1% crystal violet for 30 min. The excess dye was washed out and the crystal violet staining adhered biofilm forming cells were eluted by glacial acetic acid (33%). The experiment was conducted in triplicate and the absorbance was measured at 590 nm. The absorbances of tested strains treated with different compounds were expressed as mean ± standard error of percentage change from untreated tested strains control. The percentages of biofilm inhibition were calculated employing the following formula: (absorbance of control—absorbance in presence of tested compounds)/absorbance of control.

P. aeruginosa [5] = test: Assay of hemolytic activity; format: cell-based, Pseudomonas aeruginosa; details: sub-MIC
Procedure: The anti-virulence effects of compounds 5, 7 and 10 on hemolytic activity of tested P. aeruginosa and S. aureus strains were assessed as described previously. Optically adjusted bacterial cultures treated or untreated with tested compounds at sub-MIC were centrifuged, and 0.5 mL of supernatants were mixed with fresh 0.8 mL 2% erythrocyte (obtained from experimental animals) suspension in saline, and incubated for 2 h at 37 °C. A complete hemolysis positive control was prepared by addition of sodium dodecyl sulphate (SDS) to erythrocyte suspension, and negative control was prepared by incubation of erythrocytes in LB broth under the same conditions. After centrifugation, the absorbances of the lysed erythrocytes were measured at 540 nm by Biotek spectrofluorometer (Biotek, Winooski, VT, USA). The experiment was performed in triplicate, and the hemolysis of tested compound treated cultures were expressed as mean ± standard error of percentages compared with those obtained from untreated control cultures using the formula: (absorbance in presence or absence of tested compounds—absorbance of negative control)/(absorbance of positive control—absorbance of negative control).

S. aureus = test: Quantification of staphyloxanthin pigment; format: cell-based, Staphylococcus aureus; details: sub-MIC
Procedure: Staphyloxanthin and intermediate carotenoids were extracted from S. aureus treated or untreated with compounds 5, 7 and 10 at sub-MIC as described. Bacterial cells were cultivated in TSB at 37 °C for 24 h, then cells were collected by centrifugation, and washed twice with phosphate-buffered saline (PBS). The obtained pellets were used to extract staphyloxanthin with methanol. The pellets (5 gm of) were resuspended in 20 mL methanol, and heated with gentle stirring at 55 °C in a water bath for 5 min. Then, the methanol extract liquids were cooled and centrifuged, and the absorbances of the produced staphyloxanthin were quantified spectrophotometrically at 450 nm (Biotek, Winooski, VT, USA). The experiment was repeated in triplicate, and the pigment absorbances in the presence of tested compounds were expressed as mean ± standard error of percentage change from untreated controls. The percentages of pigment production were calculated using the formula: (absorbance of control − absorbance in presence of tested compounds)/absorbance of control.

Panc-1 = test: Caspase-Glo 3/7 apoptosis assay; format: cell-based, human; details: ½ IC50, IC50 or 2 ×IC50 for 6 h, vs untreated controls
Procedure: Caspases play critical roles in apoptosis. The apoptotic effects of selected compounds 5, 7 and 10 on pancreatic cell line Panc-1 were tested by quantification of caspase 3/7 using Caspase-Glo 3/7 assay kit (Promega, Fitchburg, MA, USA) as previously described. Briefly, cells were treated with or without compounds 5, 7 and 10 (½ IC50, IC50, or 2 ×IC50) for 6 h. The prepared reagent Caspase-Glo 3/7 was added in equal volumes to cells, gently mixed, and incubated for 60 min at room temperature. The luminescence was measured, and the activity of caspase was presented as a percentage change from the untreated control.

Row | SMILES | MIC [1] [µg/mL] | Production of pigment pyocyanin (P. aeruginosa [2]) | MIC [3] [µg/mL] | Inhibition of biofilm formation [4] | Hemolytic activity (P. aeruginosa [5]) | Production of pigment staphyloxanthin (S. aureus) | Apoptotic effect, caspase 3/7 levels (Panc-1)
1 | Cc1ccc(S(=O)(=O)Nc2ccccc2C2=N/C(=C/c3ccc([N+](=O)[O-])cc3)C(=O)O2)cc1 [Compound 9f, (E)-4-Methyl-N-(2-(4-(4-nitrobenzylidene)-5-oxo-4,5-dihydrooxazol-2-yl)phenyl)benzenesulfonamide] | > 32 | significantly decreased the production | 4 (≈ 8.63 µM) | highest abilities to inhibit biofilm formation | significantly diminished the hemolytic activity | significantly decreased the production | triggered apoptosis through increasing the amounts of activated caspases 3/7
2 | Cc1ccc(S(=O)(=O)Nc2ccccc2C2=N/C(=C/c3ccccc3)C(=O)O2)cc1 [Compound 9a, (E)-N-(2-(4-Benzylidene-5-oxo-4,5-dihydrooxazol-2-yl)phenyl)-4-methylbenzenesulfonamide] | 32 (≈ 76.5 µM) | significantly decreased the production | 8 (≈ 19.1 µM) | highest abilities to inhibit biofilm formation | significantly diminished the hemolytic activity | significantly decreased the production | triggered apoptosis through increasing the amounts of activated caspases 3/7
3 | COc1ccc(/C=C2/N=C(c3ccccc3NS(=O)(=O)c3ccc(C)cc3)OC2=O)cc1 [Compound 9b, (E)-N-(2-(4-(4-Methoxybenzylidene)-5-oxo-4,5-dihydrooxazol-2-yl)phenyl)-4-methylbenzenesulfonamide] | > 32 | significantly decreased the production | 4 (≈ 8.92 µM) | highest abilities to inhibit biofilm formation | significantly diminished the hemolytic activity | significantly decreased the production | triggered apoptosis through increasing the amounts of activated caspases 3/7
